According to paper PMC9126943, “ADAMTS4-specific MR probe to assess aortic aneurysms in vivo using synthetic peptide libraries” (Nature Communications, 2022):
Where a SMILES comes first, the peptide text is derived from it. Bridges are numbered along the chain shown (N, C = ends). The star is where a group is joined. DOTA = O=C(O)CN1CCN(CC(=O)O)CCN(CC(=O)*)CCN(CC(=O)O)CC1

Target: T1, ADAMTS4 in the aortic wall of ApoE−/− mice (Mus musculus, UniProt Q8BNJ2)
T1 construct: from tissue
T1 sequence (Q8BNJ2 209-833): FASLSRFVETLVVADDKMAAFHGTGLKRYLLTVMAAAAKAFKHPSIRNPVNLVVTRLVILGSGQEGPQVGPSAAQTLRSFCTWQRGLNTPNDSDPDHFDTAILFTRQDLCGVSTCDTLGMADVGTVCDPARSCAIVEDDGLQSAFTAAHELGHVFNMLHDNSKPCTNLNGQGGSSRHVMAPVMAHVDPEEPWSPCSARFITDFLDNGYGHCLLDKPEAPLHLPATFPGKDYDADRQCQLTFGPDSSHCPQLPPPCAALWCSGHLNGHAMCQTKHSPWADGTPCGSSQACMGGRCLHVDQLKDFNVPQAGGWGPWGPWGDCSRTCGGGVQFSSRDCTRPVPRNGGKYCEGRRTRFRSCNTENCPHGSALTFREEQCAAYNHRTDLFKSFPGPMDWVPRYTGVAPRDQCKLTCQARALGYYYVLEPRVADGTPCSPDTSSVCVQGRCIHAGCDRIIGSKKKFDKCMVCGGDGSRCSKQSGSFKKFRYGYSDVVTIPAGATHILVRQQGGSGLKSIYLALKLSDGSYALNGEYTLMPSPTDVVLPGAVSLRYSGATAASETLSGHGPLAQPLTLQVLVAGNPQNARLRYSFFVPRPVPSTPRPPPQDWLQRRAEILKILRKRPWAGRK
Test: LA-ICP-MS spatial localization of Gd in the aortic wall
Type: in vivo
Details: 10 µm cryosections, n = 3 per time point
Procedure: Aortic tissues were cut into 10 µm cryosections at −20 °C and mounted on SuperFrost Plus adhesion slides (Thermo Scientific, Waltham, MA, USA). Laser ablation inductively coupled plasma mass spectrometry (LA-ICP-MS) analysis was performed on a commercial LA system (NWR-213, ESI, Bozeman, MT, USA) equipped with a two-volume sample chamber coupled to a sector field ICP-MS (Element XR, Thermo Fisher Scientific, Bremen, Germany) (Supplementary Table 6).
Helium was used as the carrier gas, and argon was added before reaching the torch using a Y-piece (Supplementary Table 7). The ICP-MS was tuned for maximum ion intensity and good signal stability (RSD < 5%), keeping the oxide ratio (ThO/Th) below 1% during the continuous ablation of a microscopic glass slide. Matrix-matched agarose gel standards cast on glass slides were used for drift control and calibration. These standards contain Gd concentrations between 26.6 pg mm^−2 and 600.1 pg mm^−2. Averaged intensities of six line-scans per standard were used for calibration. Data visualization was done in Origin 2022 (OriginLab Corporation, Northampton, MA).

N=C(N)NCCC[C@@H]1NC(=O)[C@H](CCCNC(=N)N)NC(=O)[C@H](CO)NC(=O)[C@@H](N)CSSC[C@@H](C(=O)N[C@@H](CO)C(=O)NCC(=O)NCC(=O)N[C@@H](CO)C(=O)NCC(=O)NCC(=O)N[C@@H](CCCCNC(=O)CN2CCN(CC(=O)O)CCN(CC(=O)O)CCN(CC(=O)O)CC2)C(=O)NCC(N)=O)NC(=O)CNC1=O (Gd complex, metal not drawn) [ADAMTS4-specific probe] (H-CSRRGCSGGSGGK(DOTA)G-NH2; disulfide 1-6)
colocalization of gadolinium with areas positive for ADAMTS4: strong colocalization
